# According to PubChem BioAssay (NCI):
# Where “and” joins values, the source holds several entries; their conditions need not be identical. Equal entries are not always repeated.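 Assay format: 96-well plates, 48-hour exposure. At the GI50, growth is halved. The concentration for full growth arrest is given as TGI.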
# What was measured:
# Assay in all cases: inhibition of tumour cell growth, NCI panel, 48 h
# 786-0 renal = system: 786-0 renal
# MDA-MB-435 = system: MDA-MB-435
# BT-549 breast = system: BT-549 breast
# SK-MEL-2 melanoma = system: SK-MEL-2 melanoma
# SNB-19 CNS = system: SNB-19 CNS
# HCT-116 colon = system: HCT-116 colon
# OVCAR-5 ovarian = system: OVCAR-5 ovarian
# SK-MEL-5 melanoma = system: SK-MEL-5 melanoma
# A498 renal = system: A498 renal
# NCI-H23 lung = system: NCI-H23 lung
SMILES,TGI (786-0 renal),TGI (MDA-MB-435),TGI (BT-549 breast),TGI (SK-MEL-2 melanoma),TGI (SNB-19 CNS),TGI (HCT-116 colon),TGI (OVCAR-5 ovarian),TGI (SK-MEL-5 melanoma),TGI (A498 renal),TGI (NCI-H23 lung),GI50 (786-0 renal),GI50 (MDA-MB-435),GI50 (BT-549 breast),GI50 (SK-MEL-2 melanoma),GI50 (HCT-116 colon),GI50 (SK-MEL-5 melanoma),GI50 (A498 renal),GI50 (NCI-H23 lung),GI50 (SNB-19 CNS),GI50 (OVCAR-5 ovarian)
N#CC1(C#N)C2C=CC(C3CCC=C32)C1(C#N)C#N (stereo not given),> 9.04 µM,> 10 µM,> 10 µM,> 10 µM,> 10 µM,> 10 µM,> 10 µM,> 10 µM,> 10 µM,> 10 µM,–,–,–,–,–,–,–,–,–,–
Cc1nc(C(N)=S)sc1C(=O)CC(=O)C(=O)Nc1cccc(Cl)c1C,> 100 µM,> 100 µM,> 100 µM,> 100 µM,> 100 µM,> 100 µM,> 100 µM,> 100 µM,> 100 µM,> 100 µM,–,–,–,–,–,–,–,–,–,–
Cc1cc(N)c2ccccc2[n+]1CCCCCCCCCC[n+]1c(C)cc(N)c2ccccc21,10.9 µM and 21.3 µM and 25.5 µM,0.926 µM and 3.18 µM,1.57 µM and 3.29 µM and 5.32 µM,1.93 µM and 9.03 µM and 3.78 µM,> 26.1 µM and 2.96 µM and 16.2 µM,–,25.5 µM and 7.98 µM,–,–,> 12.4 µM and 3.96 µM and 3.89 µM,0.512 µM and 3.75 µM,0.245 µM,0.304 µM and 1.5 µM,0.674 µM and 1.4 µM,0.28 µM and 2 µM,0.0679 µM and 0.367 µM,0.0691 µM,0.236 µM and 0.484 µM,–,–
OCCCCC#Cc1ccccc1C#Cc1cnccn1,> 100 µM,> 100 µM,55.2 µM,> 100 µM,> 100 µM,> 100 µM,> 100 µM,> 100 µM,53.9 µM,> 100 µM,34.7 µM,33.8 µM,17.4 µM,70.7 µM,42.6 µM,38.2 µM,13.5 µM,40.8 µM,73.4 µM,47.7 µM
CCNC(=O)Oc1ccc(/C(=C(\C)c2ccc(Cl)cc2)c2ccc(OCCN3CCCCC3)cc2)cc1,3.43 µM,14.1 µM,16.6 µM,19.2 µM,16.2 µM,3.22 µM,23.8 µM,3.17 µM,27 µM,19.7 µM,1.79 µM,3.39 µM,4.27 µM,5.49 µM,1.69 µM,1.79 µM,13.7 µM,5.1 µM,4.77 µM,11 µM
O=c1[nH]c2cc(O)ccc2n2cc3c(F)cccc3c12,> 100 µM,> 100 µM,> 100 µM,> 100 µM,> 100 µM,> 100 µM,> 100 µM,> 100 µM,> 100 µM,> 100 µM,4.29 µM,0.278 µM,> 100 µM,> 21.2 µM,0.881 µM,0.348 µM,3.76 µM,3.86 µM,3.33 µM,> 31.3 µM
CC(=O)C1=C(O)/C(=C\c2ccco2)OC1=O,> 10 µM,> 10 µM,> 10 µM,> 10 µM,> 10 µM,> 10 µM,> 10 µM,> 10 µM,> 10 µM,> 10 µM,–,–,–,–,–,–,–,–,–,–
CCSc1nc(N)c2cnn(C)c2n1,> 100 µM,> 100 µM,> 100 µM,> 100 µM,> 100 µM,> 100 µM,> 100 µM,38.9 µM,21.5 µM,> 100 µM,80 µM,38.7 µM,42.9 µM,> 100 µM,28.9 µM,16.1 µM,3.26 µM,41.5 µM,58.4 µM,49.9 µM
